Data set [1] deals with T1, human recombinant Casein kinase 18 (CK1δ) (Homo sapiens, UniProt P48730).
T1 construct: purchased Reaction Biology Corp
The data set can be described thus: Kinase inhibition assay (HotSpot, Reaction Biology Corp), CK1δ. Format: biochemical. To be noted: 10 μM ATP, 10-dose IC50 mode.

For a further data set, the target named is T2, ERBB4/HER4 (Homo sapiens, UniProt Q15303).
T2 construct: purchased Reaction Biology Corp
The data set can be described thus: Kinase inhibition assay (HotSpot), ERBB4/HER4. Format: biochemical. To be noted: 10 μM ATP, 10-dose IC50 mode; read-out: Compound IC50 (M) ERBB4/HER4.

The next data set concerns the target T3, MINK/MINK1 (Homo sapiens, UniProt Q8N4C8).
T3 construct: purchased Reaction Biology Corp
The data set can be described thus: Kinase inhibition assay (HotSpot), MINK/MINK1. Format: biochemical. As to conditions: 10 μM ATP, 10-dose IC50 mode; read-out: Compound IC50 (M) MINK/MINK1.

Data set [2] has as its system TGF-β-induced IL-11 in primary human parenchymal fibroblast cells (pFbs). The data set can be described thus: Human parenchymal fibroblast cell assay, TGF-β-induced IL-11 (ELISA). Format: cell-based. As to conditions: compounds 0.1-10 μM 30 min prior to TGF-β1, 16-24 hours, 4.00* is assigned to compounds that failed to cause 50% or more inhibition at 10 µM, read-out: pIC50 IL-11 suppression (converted). On the procedure: Human Parenchymal Fibroblast Cell Assay
Primary human parenchymal fibroblast cells (pFbs) were cultured from parenchyma of lung resection specimens and from non-transplanted lungs of donors without chronic respiratory disease. pFbs were passaged in Dulbecco's Modified Eagle's Media (DMEM) containing 10% (v/v) heat-inactivated fetal calf serum (FCS), 15 mM HEPES, 0.2% (v/v) sodium bicarbonate, 2 mM L-glutamine, 1% (v/v) non-essential amino acids, 1% (v/v) sodium pyruvate, 2.5 μg/mL amphotericin, 5 IU/mL penicillin and 50 μg/mL streptomycin. In some experiments the human lung fibroblast cell line, MRC5 (sourced from ATTC) was used as indicated. The MRC5 line was maintained under the same conditions as described for the pFb.
Prior to experimentation, pFb were incubated in serum-free DMEM containing 0.25% bovine serum albumin (BSA) and insulin-transferrin-selenium-containing supplement (Monomed A; CSL, Parkville, Melbourne, Australia). The cells were incubated with small molecular CK1δ inhibitors (0.1-10 μM) for 30 min prior to […] TGF-β1 (R&D Systems, Minneapolis, Minn.) and the incubation continued for 16-24 hours prior to harvest of supernatant for detection of immunoreactive IL-11. Stock solutions were made as 10 mM in 100% DMSO and diluted to the required concentration in medium containing 0.1% DMSO (final concentration).
Supernatants were collected for measurement of IL-11 (R&D DuoSet, DY218) by ELISA following the manufacturers' instructions. Generally, capture antibodies were initially diluted to the recommended concentrations using PBS buffer, and then used to coat the wells of 96-well microplates (Greiner, #655061) by adding 50 μL/well and incubated overnight at room temperature. Next day, solutions were discarded and wells were washed 3 times with wash buffer (PBS containing 0.1% (v/v) Tween-20) prior to the addition of 200 μL of blocking solution (PBS containing 1% (v/v) BSA) for 1 hour to block non-specific sites. Plates were then washed 3 times with wash buffer and 50 μL of samples or standards were then added to wells and incubated for 2 hours at room temperature. After the incubation, plates were washed 3 times with wash buffer and 50 μL of detection antibodies were added to wells and incubated for 2 hours at room temperature. Plates were then washed 3 times before adding streptavidin-conjugated horseradish peroxidase (at the recommended concentrations) for 45 min. Plates were then washed 5 times with wash buffer and 100 μL TMB substrate solution (equal parts A and B, BD Biosciences) was added to each well until sufficient signals emerged. The reactions were inactivated by adding 100 μL sulphuric acid (2M H2SO4). The absorbance was measured at 450 nm using the Multiskan Ascent® plate reader. The absorbance of the cytokine standards was fitted to a logistic equation, allowing the concentrations of cytokine in samples to be determined.
PIC50 values (the negative log of the concentration suppressing IL-11 level by 50%) for inhibition of TGF-β-induced IL-11 were interpolated from the linear regression of log concentration small molecule versus IL-11 level (Table 4 and FIG. 2).
(An ELISA detects its analyte on a solid surface through an enzyme-linked reagent.)

Data set [3] can be described thus: In vitro metabolic stability, human liver microsomes. It is filed as in vitro ADME. As to the method:
Human Microsomal Stability of Compounds of the Invention
In Vitro Metabolic Stability
Incubation: The metabolic stability assay was performed by incubating each test compound in human liver microsomes at 37° C. and a protein concentration of 0.4 mg/mL. The metabolic reaction was initiated by the addition of an NADPH-regenerating system and quenched at various time points over a 60 minute incubation period by the addition of acetonitrile containing diazepam as internal standard. Control samples (containing no NADPH) were included (and quenched at 2, 30 and 60 minutes) to monitor for potential degradation in the absence of cofactor. The human liver microsomes used in this experiment were supplied by XenoTech, lot #1410230. Microsomal incubations were performed at a substrate concentration of 1 μM. Data analysis: Species scaling factors from Ring et al. (2011) JPharmSci, 100:4090-4110 were used to convert the in vitro CLint (μL/min/mg) to an in vivo CLint(mL/min/kg). Hepatic blood clearance and the corresponding hepatic extraction ratio (EH) were calculated using the well stirred model of hepatic extraction in each species, according to the “in vitro T1/2” approach described in Obach (1999) DrugMetab. Dispos. 27:1350-1359. The EH was then used to classify compounds as low(<0.3), intermediate (0.3-0.7), high (0.7-0.95) or very high (>0.95) extraction compounds. Predicted in vivo clearance values have not been corrected for microsomal or plasma protein binding. Species scaling calculations are based on two assumptions: 1) NADPH-dependent oxidative metabolism predominates over other metabolic routes (i.e. direct conjugative metabolism, reduction, hydrolysis, etc.), and; 2) rates of metabolism and enzyme activities in vitro are truly reflective of those that exist in vivo. If significant non-NADPH-mediated degradation is observed in microsome control samples, then assumption (1) is invalid and predicted clearance parameters are therefore not reported.

The test system of data set [4] is interleukin-1α (IL1α)-mediated cytokine production by the lung adenocarcinoma cell line A549. The data set can be described thus: Cellular assay (A549) against IL1α-mediated cytokine production. Format: cell-based, human. As to conditions: serum starved A549 cells, compound 30 min prior to IL-1α (1 ng/ml) for 24 h, ELISA. As to the method:
Cellular Assay (A549 Human Lung Adenocarcinoma Cells) Assessing Effect of ZH3-138, ZH3-126 and PF670462 Against IL1α-Mediated Cytokine Production
The anti-inflammatory potential of selected compounds was examined by establishing the effects on interleukin-1α (IL1α)-mediated cytokine production by the lung adenocarcinoma cell line A549. Serum starved A549 cells were treated with various concentrations of the relevant CK1δ inhibitor (PF670462, ZH3-126 and ZH3-138) 30 min prior to IL-1α (1 ng/ml) for 24 h. Supernatant was collected and concentration of IL-6, IL-8 and GM-CSF was detected by ELISA. Data are presented as mean±SEM across three replicates in FIG. 7 (A: IL-6; B: IL-8 and C: GM-CSF).

The mark [5] stands for this setting: read-out: Compound IC50 (M) CK1δ.

Read-outs that look alike come from different tables or passages of the source.

T2 sequence (Q15303 26-1308): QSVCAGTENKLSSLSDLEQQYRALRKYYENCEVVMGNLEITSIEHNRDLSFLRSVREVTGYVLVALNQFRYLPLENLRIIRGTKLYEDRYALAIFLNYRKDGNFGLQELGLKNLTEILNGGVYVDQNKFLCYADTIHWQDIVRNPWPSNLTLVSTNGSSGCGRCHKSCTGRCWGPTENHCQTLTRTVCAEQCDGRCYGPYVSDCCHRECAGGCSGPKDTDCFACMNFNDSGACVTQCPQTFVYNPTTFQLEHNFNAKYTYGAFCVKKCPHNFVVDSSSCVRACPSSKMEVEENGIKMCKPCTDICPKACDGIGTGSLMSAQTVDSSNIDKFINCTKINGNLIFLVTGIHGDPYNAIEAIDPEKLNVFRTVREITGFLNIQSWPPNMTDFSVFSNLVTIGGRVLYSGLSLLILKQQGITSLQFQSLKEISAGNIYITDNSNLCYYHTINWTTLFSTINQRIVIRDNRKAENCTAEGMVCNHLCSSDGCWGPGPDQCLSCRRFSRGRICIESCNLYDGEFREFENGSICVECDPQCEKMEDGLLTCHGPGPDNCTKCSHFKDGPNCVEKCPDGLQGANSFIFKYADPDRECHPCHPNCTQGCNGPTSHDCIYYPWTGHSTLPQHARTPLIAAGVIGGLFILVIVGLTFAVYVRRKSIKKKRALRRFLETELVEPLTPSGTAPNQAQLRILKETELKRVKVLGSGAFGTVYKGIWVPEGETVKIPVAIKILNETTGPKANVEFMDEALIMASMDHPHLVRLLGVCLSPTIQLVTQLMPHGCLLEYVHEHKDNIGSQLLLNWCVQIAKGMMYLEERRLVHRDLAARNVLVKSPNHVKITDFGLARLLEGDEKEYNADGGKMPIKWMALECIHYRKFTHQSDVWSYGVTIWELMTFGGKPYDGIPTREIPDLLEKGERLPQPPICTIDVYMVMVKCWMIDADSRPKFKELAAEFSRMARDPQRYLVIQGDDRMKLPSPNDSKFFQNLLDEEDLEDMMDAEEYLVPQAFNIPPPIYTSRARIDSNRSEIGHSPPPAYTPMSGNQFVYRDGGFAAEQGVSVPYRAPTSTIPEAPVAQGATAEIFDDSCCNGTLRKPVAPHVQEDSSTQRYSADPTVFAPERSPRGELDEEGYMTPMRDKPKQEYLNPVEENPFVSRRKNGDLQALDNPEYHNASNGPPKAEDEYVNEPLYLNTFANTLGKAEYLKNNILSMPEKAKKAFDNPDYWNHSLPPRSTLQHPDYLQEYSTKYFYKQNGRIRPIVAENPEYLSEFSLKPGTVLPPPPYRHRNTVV
T3 sequence (Q8N4C8 whole entry): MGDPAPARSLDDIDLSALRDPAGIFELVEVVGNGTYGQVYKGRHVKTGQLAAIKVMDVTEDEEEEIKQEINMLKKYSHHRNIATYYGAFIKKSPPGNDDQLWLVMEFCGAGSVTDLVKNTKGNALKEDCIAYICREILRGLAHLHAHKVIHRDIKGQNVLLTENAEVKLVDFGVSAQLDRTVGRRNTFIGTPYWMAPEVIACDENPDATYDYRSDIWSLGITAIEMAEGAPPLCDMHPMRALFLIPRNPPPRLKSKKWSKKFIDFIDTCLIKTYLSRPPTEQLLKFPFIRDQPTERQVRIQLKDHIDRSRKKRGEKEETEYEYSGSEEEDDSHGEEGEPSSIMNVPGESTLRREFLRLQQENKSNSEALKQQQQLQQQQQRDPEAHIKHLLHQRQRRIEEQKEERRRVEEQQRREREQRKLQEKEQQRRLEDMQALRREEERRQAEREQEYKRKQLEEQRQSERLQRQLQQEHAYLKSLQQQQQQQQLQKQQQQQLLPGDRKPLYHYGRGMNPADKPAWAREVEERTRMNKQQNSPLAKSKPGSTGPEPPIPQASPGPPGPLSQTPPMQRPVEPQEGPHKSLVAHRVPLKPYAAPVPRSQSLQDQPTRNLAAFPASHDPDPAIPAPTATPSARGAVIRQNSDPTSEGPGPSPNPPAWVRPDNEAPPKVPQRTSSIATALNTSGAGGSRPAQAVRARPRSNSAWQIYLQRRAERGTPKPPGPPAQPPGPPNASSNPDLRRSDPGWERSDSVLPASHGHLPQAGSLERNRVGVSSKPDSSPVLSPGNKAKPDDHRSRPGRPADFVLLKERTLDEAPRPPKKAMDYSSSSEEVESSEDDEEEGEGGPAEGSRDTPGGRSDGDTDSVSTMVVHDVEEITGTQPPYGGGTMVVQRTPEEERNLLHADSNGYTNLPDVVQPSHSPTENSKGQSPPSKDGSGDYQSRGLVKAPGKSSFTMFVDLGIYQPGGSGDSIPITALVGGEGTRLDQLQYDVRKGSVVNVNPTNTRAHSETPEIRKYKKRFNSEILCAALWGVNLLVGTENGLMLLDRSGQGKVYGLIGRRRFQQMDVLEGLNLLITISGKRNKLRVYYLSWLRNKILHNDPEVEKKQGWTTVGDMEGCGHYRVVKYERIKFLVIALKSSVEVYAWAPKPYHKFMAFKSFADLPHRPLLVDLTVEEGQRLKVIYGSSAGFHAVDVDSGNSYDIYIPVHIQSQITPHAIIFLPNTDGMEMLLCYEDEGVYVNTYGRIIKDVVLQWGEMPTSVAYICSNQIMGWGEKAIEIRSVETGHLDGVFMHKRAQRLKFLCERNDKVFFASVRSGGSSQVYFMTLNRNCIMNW
T1 sequence (P48730 whole entry): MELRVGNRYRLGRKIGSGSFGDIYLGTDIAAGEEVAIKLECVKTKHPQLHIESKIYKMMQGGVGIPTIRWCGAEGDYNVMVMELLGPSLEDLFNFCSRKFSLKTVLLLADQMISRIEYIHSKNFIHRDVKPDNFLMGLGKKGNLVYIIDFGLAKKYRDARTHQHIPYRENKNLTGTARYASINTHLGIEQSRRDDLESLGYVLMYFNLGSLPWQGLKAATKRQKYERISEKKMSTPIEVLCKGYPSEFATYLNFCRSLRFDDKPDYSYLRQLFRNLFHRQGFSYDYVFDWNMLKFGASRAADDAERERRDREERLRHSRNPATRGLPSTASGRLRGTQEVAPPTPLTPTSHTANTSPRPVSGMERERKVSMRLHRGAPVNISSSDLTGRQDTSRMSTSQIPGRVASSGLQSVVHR

In the case of `CCNc1nccc(-c2c(-c3ccc(F)cc3)ncn2C2CCCCC2)n1` [ZH2-78, 4-(1-Cyclohexyl-4-(4-fluorophenyl)-1H-imidazol-5-yl)-N-ethylpyrimidin-2-amine], the IC50 in data set [1] (setting [5]) was 4.7e-09 M; on ERBB4/HER4, 7.5e-07 M; on MINK/MINK1 it was 2.26e-08 M; in data set [2], 0.295 µM.

For `O[C@H]1C[C@@H](Nc2nccc(-c3c(-c4ccc(F)cc4)ncn3C3CCCCC3)n2)C1` [ZH3-62, cis-3-((4-(1-Cyclohexyl-4-(4-fluorophenyl)-1H-imidazol-5-yl)pyrimidin-2-yl)amino)cyclobutan-1-ol], the IC50 in data set [1] (setting [5]) was 1.31e-09 M; at ERBB4/HER4 it was greater than 1e-05 M; on MINK/MINK1, 7.53e-09 M; in data set [2] it was 1 µM.

For `Nc1nccc(-c2c(-c3ccc(F)cc3)ncn2CC2CCC(F)(F)CC2)n1` [ZH3-130, 4-(1-((4,4-Difluorocyclohexyl)methyl)-4-(4-fluorophenyl)-1H-imidazol-5-yl)pyrimidin-2-amine], the IC50 in data set [1] (setting [5]) is 6.13e-09 M; on ERBB4/HER4, 1.42e-06 M; on MINK/MINK1, 8.9e-07 M; in data set [2], 0.832 µM.

On to `OCCNc1nccc(-c2c(-c3ccc(F)cc3)ncn2CC2CCCCC2)n1` [ZH3-118, 2-((4-(1-(Cyclohexylmethyl)-4-(4-fluorophenyl)-1H-imidazol-5-yl)pyrimidin-2-yl)amino)ethan-1-ol], for which the IC50 in data set [1] (setting [5]) was 2.13e-09 M; on ERBB4/HER4 it was 5.13e-07 M; on MINK/MINK1, 1.97e-07 M; in data set [2], 8.32 µM.

As for `CC(C)(C)Cn1cnc(-c2ccc(F)cc2)c1-c1ccnc(N)n1` [ZH3-78, 4-(4-(4-Fluorophenyl)-1-neopentyl-1H-imidazol-5-yl)pyrimidin-2-amine], the IC50 is 5.93e-08 M in data set [1] (setting [5]), 8.35e-06 M on ERBB4/HER4, 8.09e-07 M on MINK/MINK1 and 8.51 µM in data set [2].

As to `CCn1cnc(-c2ccc(F)cc2)c1-c1ccnc(NCCO)n1` [ZH3-126, 2-((4-(1-Ethyl-4-(4-fluorophenyl)-1H-imidazol-5-yl)pyrimidin-2-yl)amino)ethan-1-ol], the IC50 in data set [1] (setting [5]) is 6.38e-10 M; in data set [1] (casein kinase 1δ, read-out: pIC50 (converted)) it was 6.46e-10 M; on ERBB4/HER4, 9.52e-06 M; on MINK/MINK1, 1.99e-07 M; in data set [2], 1.86 µM. The “Predicted EH (hepatic extraction ratio)” value in data set [3] (human liver microsomes) is given as 0.22. In data set [3] (human liver microsomes, 1 μM), this compound came in with a microsomal CLint at 1 μM of 7 µL/min/mg. Besides, in data set [3] (human liver microsomes, 1 μM, 0.4 mg/mL protein, 37° C.), the half-life at 1 μM was found to be 4.03 h. Also, in data set [3] (scaled from human liver microsomes, well stirred model), the “Predicted CLblood” value was 5 mL/min/kg. In data set [3] (scaled from human liver microsomes, read-out: Predicted CLint, in vivo), the CLint scaled at 1 μM is 6 mL/min/kg. Also, the “supernatant concentrations of inflammatory biomarkers (IL-6, IL-8, GM-CSF)” value in data set [4] was “ability to reduce supernatant concentrations of other inflammatory biomarkers”.

Take `CCn1cnc(-c2ccc(F)cc2)c1-c1ccnc(NC2CCC2)n1` [ZH3-122, N-Cyclobutyl-4-(1-ethyl-4-(4-fluorophenyl)-1H-imidazol-5-yl)pyrimidin-2-amine]: the IC50 is 4.16e-09 M in data set [1] (setting [5]), 4.42e-06 M on ERBB4/HER4, 1.83e-08 M at MINK/MINK1 and 0.178 µM in data set [2].

For `Fc1ccc(-c2ncn(CC3CCCCC3)c2-c2ccnc(NC3COC3)n2)cc1` [ZH3-114, 4-(1-(Cyclohexylmethyl)-4-(4-fluorophenyl)-1H-imidazol-5-yl)-N-(oxetan-3-yl)pyrimidin-2-amine], the IC50 in data set [1] (setting [5]) is 1.17e-09 M; on ERBB4/HER4, 3e-06 M; at MINK/MINK1 it was 9.44e-08 M; in data set [2], 10.5 µM.

For the compound `Fc1ccc(-c2ncn(C3CCCCC3)c2-c2ccnc(NCc3ccccc3F)n2)cc1` [ZH2-118, 4-(1-Cyclohexyl-4-(4-fluorophenyl)-1H-imidazol-5-yl)-N-(2-fluorobenzyl)pyrimidin-2-amine], the IC50 was 9.6e-09 M in data set [1] (setting [5]), 3.66e-06 M on ERBB4/HER4, 4.21e-08 M at MINK/MINK1 and 1.45 µM in data set [2].

The term microsomal CLint denotes the capacity of the preparation to metabolise the compound, expressed as a volume cleared per time. Read a high microsomal CLint as rapid turnover. Usually half-life stands for the time in which the quantity being followed falls by half.

Values taken from patent publication US20220281846A1, “COMPOUNDS AND COMPOSITIONS FOR THE TREATMENT OF RESPIRATORY DISEASES” (THE UNIVERSITY OF MELBOURNE, priority 2018, published 2022).
